Data reported in patent US20220016271A1, “METHODS FOR TREATING CANCER” (The Brigham and Women`s Hospital, Inc., priority 2018, published 2022).

Key:
[1] = system: A549 (p53 wild type); assay type: cell-based; details: p53 mRNA 1 μg/mL; metformin 4 or 6 mg/mL (FIG. 60)
Procedure: Experimental Methods. […] Then, the cell viabilities of these cells were measured by Alamar blue assay. […] The cells without receiving any treatments were labeled as the “Control”.

[2] = system: p53-null H1299 cells; experiment: Cell viability by AlamarBlue assay; assay type: cell-based, human
Procedure: (§1) Cell viability and transfection efficiency of EGFP-mRNA NPs. The p53-null Hep3B cells or H1299 cells were plated in 96-well plates at a density of 3×10^3 cells per well. […] Lip2k was used as a positive control for transfection efficiency comparison with the NPs. Cell viability was tested by AlamarBlue assay, which is a non-toxic assay that can continuously check real-time cell proliferation through a microplate reader (TECAN, Infinite M200 Pro). Absorbance was examined by a 96-well SpectraMax plate reader (Molecular Devices) at 545 nm and 590 nm. To measure the transection efficiency, cells were treated with EGFP-mRNA by NPs or Lip2k for 24 hours, detached with 2.5% EDTAtrypsin, and collected in PBS solution, followed by evaluating GFP expression using flow cytometry (BD Biosystems). The percentages of EGFP-positive cells were calculated and analyzed by Flowjo software.
(§2) Combination index (CI) calculation.

[3] = system: p53-null Hep3B cells; experiment: Cell viability by AlamarBlue assay; assay type: cell-based, human
Procedure: as §1, §2

[4] = system: H1299 cells; experiment: Apoptosis detection (Annexin V/PI, flow cytometry); assay type: cell-based, human; details: AnnV/PI co-staining
Procedure: (§3) Apoptosis and cell cycle detection in vitro. We used an FITC Annexin V/Propidium iodide (PI) apoptosis detection kit (BD Biosciences) to detect apoptosis. In brief, 1×10^6 cells were seeded into 6-well plates. After attachment overnight, cells were treated with p53-mRNA NPs for 24 hours before being mixed with 1 ml fresh medium and continuing to culture for another 24 h. All the attached cells together with the floating cells in the medium were harvested, washed with PBS twice, and dispersed in 1× binding buffer solution (ice-cold) at a concentration of 1×10^6 cells/ml. 5 μl of FITC Annexin V and 5 μl of PI were further mixed with 100 μl of the cell suspension. We then incubated the mixture at room temperature for 15 min in a dark environment and performed analysis using the FACS Calibur Flow Cytometer (BD Biosystems). Cells were incubated for 48 hours with empty NPs, naked p53-mRNA, or p53-mRNANPs washed in PBS and fixed with 70% ethanol overnight, then washed in PBS twice and incubated with PI for 30 minutes at 37° C.; cell-cycle fractions (percentage of cells with fractional DNA content in G1, S, and G2/M phases of the cycle) were estimated by flow cytometry and analyzed by Flowjo software.

[5] = system: Hep3B cells; experiment: Apoptosis detection (Annexin V/PI, flow cytometry); assay type: cell-based, human; details: AnnV/PI co-staining
Procedure: as §3

[6] = system: p53-null Hep3B cells; experiment: Western blot, IF, TEM and GFP-LC3B CLSM analysis of p53, cell cycle, apoptosis, mTOR and autophagy pathways; assay type: cell-based, human
Procedure: (§4) Western blot assay. Cells or dissected tumors in each group were lysed in a lysis buffer (1 mM EDTA, 20 mM Tris-HCl pH 7.6, 140 mM NaCl, 1% aprotinin, 1% NP-40, 1 mM phenylmethylsulphonyl fluoride, and 1 mM sodium vanadate), and supplemented with protease inhibitor cocktail (Cell Signaling Technology). Protein concentration was detected by a bicinchoninic acid (BCA) Protein Assay Kit (Pierce). 25 μg of proteins were loaded on 6-12% precast gels (Invitrogen), and then transferred to Immobilon PVDF membranes (Bio-Rad, 162-0176 and 162-0177). The transferred membranes were blocked with 5% bovine serum albumin (BSA) in TBST (150 mM NaCl, 50 mM Tris-HCl at pH 7.4, and 0.1% Tween 20) for 1 hour at room temperature, and were further incubated with primary antibodies overnight at 4° C. The immunoreactive bands were detected with appropriate HRP-conjugated secondary antibodies. Band density was detected by enhanced chemiluminescence (ECL) detection system (Amersham/GE Healthcare).
Immunofluorescent staining and TEM detection. Cells or tumor tissues were fixed with 4% paraformaldehyde (Electron Microscopy Sciences) at room temperature for 15 min, followed by permeabilization in 0.2% Triton X-100-PBS for 10 min. Samples were further incubated with PBS blocking buffer (containing 2% BSA, 2% normal goat serum, and 0.2% gelatin) at room temperature for 30 min. Afterwards, the samples were incubated with primary antibody overnight at 4° C., washed with PBS, and incubated in goat anti-rat-Alexa Fluor 647 (Molecular Probes) in blocking buffer (1:1000 dilution) at room temperature for 60 min. Stained samples were washed with PBS, nuclei were stained using Hoechst 33342 (Molecular Probes-Invitrogen, H1399, 1:2000 dilution in PBS), and the samples were mounted on slides with Prolong Gold antifade mounting medium (Life Technologies). […]
(§5) Quantification of GFP-LC3B puncta. […] A confocal fluorescence microscope was used to observe the fluorescence of GFP-LC3B. To quantify the extent of autophagy, cells showing accumulation of GFP-LC3B in vacuoles or dots were counted. […]

[7] = system: p53-null H1299 cells; experiment: Western blot, IF, TEM and GFP-LC3B CLSM analysis of p53, apoptosis, mTOR and autophagy pathways; assay type: cell-based, human
Procedure: as §4
Immunofluorescent staining and TEM detection. […]
as §5

[8] = system: p53-null Hep3B xenografts; experiment: In vivo therapeutic efficacy in p53-null HCC xenograft tumor model; set-up: species or system athymic nude mice; details: mRNA 750 μg/kg IV; everolimus 5 mg/kg oral; every three days, six treatments
Procedure: In vivo therapeutic efficacy in p53-null HCC xenograft tumor model. […] The day that first treatment was performed was designated as Day 0. […] The body weights of all the mice were also recorded over this period.
as §2

[9] = system: p53-null Hep3B tumor sections; experiment: In vivo mechanisms (IF, IHC, TUNEL, WB of tumor sections); set-up: species or system athymic nude mice; details: mouse
Procedure: In vivo mechanisms underlying the p53-mRNA NP-mediated sensitization to everolimus. […] The mice were sacrificed at 12, 24, 48, or 60 hours after the last injection of p53-mRNANPs, and the tumors were harvested for sections. Mice bearing p53-null Hep3B liver xenografts and intravenously injected with PBS were used as controls and sacrificed at 60 hours after the last injection. The expression of p53 and C-CAS3 was monitored via IF detection. Moreover, tumor sections from both the PBS group and p53-mRNANP group (60 hours after the last injection) were analyzed by IHC. The expression of p53, tumor cell apoptosis markers (BAX, C-CAS3), and proliferation markers (Ki67 and PCNA) was further assessed.
Western blot assay. Cells or dissected tumors in each group were lysed in a lysis buffer (1 mM EDTA, 20 mM Tris-HCl pH 7.6, 140 mM NaCl, 1% aprotinin, 1% NP-40, 1 mM phenylmethylsulphonyl fluoride, and 1 mM sodium vanadate), and supplemented with protease inhibitor cocktail (Cell Signaling Technology). Protein concentration was detected by a bicinchoninic acid (BCA) Protein Assay Kit (Pierce). […] The immunoreactive bands were detected with appropriate HRP-conjugated secondary antibodies. Band density was detected by enhanced chemiluminescence (ECL) detection system (Amersham/GE Healthcare). […]

[10] = system: Hep3B-Luc orthotopic tumors; experiment: In vivo therapeutic efficacy in p53-null orthotopic HCC model (bioluminescence); set-up: species or system athymic nude mice; details: mRNA 750 μg/kg IV; everolimus 5 mg/kg oral; every three days, 4 rounds
Procedure: In vivo therapeutic efficacy in p53-null orthotopic HCC model. To establish the orthotopic HCC model, luciferase-expressing Hep3B (Hep3B-Luc) cells were used. Six-week-old female athymic nude mice were obtained from Zhejiang Medical Academy Animal Center. Animal studies were conducted following the protocol approved by the Institutional Animal Ethics Committee of Hangzhou Normal University. First, anterior abdominal exposure was made and a cotton swab with iodine volts was used to sterilize this area. A one-centimeter-long midline incision was made along the anterior abdominal wall below the xiphoid after anesthesia by isoflurane, and ˜5×10^6 p53-null Hep3B-Luc cells in 50 μl of PBS were injected into the left lobe of the livers of the athymic nude mice (30 in total). The injection depth was not deeper than 2 mm. The inner and outer layers of the abdominal cavity were sutured one by one after tumor cell inoculation. […] The first treatment was performed at Day 0. On Day 12, all the mice were sacrificed. Mice were monitored for tumor growth by bioluminescent in vivo imaging every 6 days (Day 0, 6, and 12). To do this, these mice were injected intraperitoneally with 150 mg/kg D-luciferin substrate (PerkinElmer, Catalog #122799) and imaged by an IVIS Lumina S5 (PerkinElmer) imaging system.

[11] = system: p53-null H1299 liver metastases; experiment: In vivo therapeutic efficacy in p53-null disseminated NSCLC model (liver metastases); set-up: species or system athymic nude mice; details: mRNA 750 μg/kg IV; everolimus 5 mg/kg oral; five rounds
Procedure: In vivo therapeutic efficacy in p53-null disseminated NSCLC model. To establish the experimental disseminated metastatic model, ˜1×10^6p53-null H1299 cells in 100 μl of PBS were injected via tail vein into female athymic nude mice. […] The first treatment was performed at Day 0. On Day 15, all the mice were sacrificed, and one liver was randomly selected from each group for H&E staining. The liver section from each group was divided into four regions for calculation of the metastasis numbers (FIG. 55).

[12] = increasing everolimus concentrations

N.N.[Cl][Pt][Cl] [cisplatin]
cells dead / killed [1]: less than 50%

CO[C@H]1C[C@@H]2CC[C@@H](C)[C@@](O)(O2)C(=O)C(=O)N2CCCC[C@H]2C(=O)O[C@H]([C@H](C)C[C@@H]2CC[C@@H](OCCO)[C@H](OC)C2)CC(=O)[C@H](C)/C=C(\C)[C@@H](O)[C@@H](OC)C(=O)[C@H](C)C[C@H](C)/C=C/C=C/C=C/1C [everolimus, Everolimus]
viability at 0.016 µM ([2]; Homo sapiens, NCI-H1299, mRNA 0.415 μg/ml, everolimus 16 nM): > 80% | cells still alive ([2]; at 64 nM): over 50% | cell viability [2, 12]: no significant decrease in cell viability | viability at 0.032 µM ([3]; Homo sapiens, Hep3B, mRNA 0.415 μg/ml, everolimus 32 nM): ~70% | cells still alive ([3]; at 64 nM): over 50% | cell viability [3, 12]: no significant decrease in cell viability | cell apoptosis [4]: moderate apoptotic cell death | cell apoptosis [5]: moderate apoptotic cell death | autophagy activation (WB, autophagosomes by TEM, GFP-LC3B by CLSM) [6]: activation of autophagy | LC3B-2 and LC3B-2/actin ratio (WB) ([6]; increase of everolimus concentration): upregulation of LC3B-2 and higher LC3B-2/actin ratios | mTOR pathway targets (p-mTOR and p-p70S6K; WB) [6, 12]: substantially blocked | autophagy activation (WB, autophagosomes by TEM, GFP-LC3B by CLSM) [7]: activation of autophagy | mTOR pathway targets (p-mTOR and p-p70S6K; WB) [7, 12]: substantially blocked | tumor growth [8]: moderate anti-tumor activity | autophagy in tumors (LC3B-2 relative to actin, BECN1; WB) [9]: induced autophagy | orthotopic tumor growth / burden (bioluminescence) [10]: somewhat inhibited the growth of orthotopic tumors | metastatic nodules in the liver [11]: moderate effects
